Measurements published in patent US11351192B2, “De-colonization drug, preparation method therefor, and application thereof” (BEIJING HYGIENE & HEALTHCARE INNOVATION TECHNOLOGY CO., LTD., priority 2017, dated 2022).

System: multi-drug resistant bacteria
Format: in vivo, hospitalized patients
Text: Using the case-control experiment, all newly-increased patients with multi-drug resistant bacteria in the cooperative hospital are selected for a period of time. The hospitalized patients are divided into the control group and the experimental group, and the control group is selected to be applied intranasally with mupirocin for 5 consecutive days and twice daily.
During the experiment, it can be found by electron microscopy at 200-fold whether mucosa has interstitial edema, inflammatory cell infiltration or surface epithelial cell shedding; it can show by electron microscopy at 6000-fold whether the mitochondria in the glandular epithelial cells are swollen or edema, it can show by electron microscopy at 10000-fold whether the morphology and structure of the ciliated epithelial cells is normal. FIGS. 1 and 2 are the electron microscopic images of the nasal mucosa by electron microscopy at 200-fold.

[1] = hospitalized patients, decolonization drug twice a day 3 days, mupirocin twice daily 5 days

C/C(=C\C(=O)OCCCCCCCCC(=O)O)C[C@@H]1OC[C@H](C[C@@H]2O[C@H]2[C@@H](C)[C@H](C)O)[C@@H](O)[C@H]1O [mupirocin]
cases of methicillin-resistant Staphylococcus aureus (MRSA) [1]: 35 cases
cases of multi-drug resistant bacteria [1]: 120 cases
ratio of MRSA cases among multi-drug resistant bacteria cases [1]: 29.16%
adverse reactions (edema and hyperemia symptoms of nasal mucosa) (human, in vivo, 5 days): 2
